From the supplement of paper PMC11061612

Tests used:
Trametinib = compound: CC(=O)Nc1cccc(-n2c(=O)n(C3CC3)c(=O)c3c(Nc4ccc(I)cc4F)n(C)c(=O)c(C)c32)c1 [Trametinib]; settings: max 1 µM
Outline: (§1)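 Following 24 hours at 37°C and 5% CO2, cancer cell lines in 1536-well plates with 7.5 μl DMEM/F12 or RPMI and 10% FBS were dosed for 72 hours, final DMSO typically being 0.2%. CellTiter-Glo 2.0 luminescence, scaled between blank-well and DMSO-well means, gave the viability readout. Dose responses were fitted to a two-parameter logistic curve with a non-linear mixed effects model, and the single-agent IC50 was derived from this fit.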

MK-2206 = compound: NC1(c2ccc(-c3nc4ccn5c(=O)[nH]nc5c4cc3-c3ccccc3)cc2)CCC1 [MK-2206]; settings: max 10 µM
Outline: as §1

AZD1390 = compound: CC(C)n1c(=O)n(C)c2cnc3cc(F)c(-c4ccc(OCCCN5CCCCC5)nc4)cc3c21 [AZD1390]; settings: max 0.3 µM
Outline: as §1

Doxorubicin = compound: COc1cccc2c1C(=O)c1c(O)c3c(c(O)c1C2=O)C[C@@](O)(C(=O)CO)C[C@@H]3O[C@H]1C[C@H](N)[C@H](O)[C@H](C)O1 [Doxorubicin]; settings: max 1 µM
Outline: as §1

AZD2811 = compound: CCN(CCO)CCCOc1ccc2c(Nc3cc(CC(=O)Nc4cccc(F)c4)[nH]n3)ncnc2c1 [AZD2811]; settings: max 1 µM
Outline: as §1

Savolitinib = compound: C[C@@H](c1ccc2nccn2c1)n1nnc2ncc(-c3cnn(C)c3)nc21 [Savolitinib]; settings: max 1 µM
Outline: as §1

Selumetinib = compound: Cn1cnc2c(F)c(Nc3ccc(Br)cc3Cl)c(C(=O)NOCCO)cc21 [Selumetinib]; settings: max 10 µM
Outline: as §1

AZD7648 = compound: Cc1cc2ncnn2cc1Nc1ncc2c(n1)n(C1CCOCC1)c(=O)n2C [AZD7648]; settings: max 10 µM
Outline: as §1

Venetoclax = compound: CC1(C)CCC(CN2CCN(c3ccc(C(=O)NS(=O)(=O)c4ccc(NCC5CCOCC5)c([N+](=O)[O-])c4)c(Oc4cnc5[nH]ccc5c4)c3)CC2)=C(c2ccc(Cl)cc2)C1 [Venetoclax]; settings: max 1 µM
Outline: as §1

Crizotinib = compound: C[C@@H](Oc1cc(-c2cnn(C3CCNCC3)c2)cnc1N)c1c(Cl)ccc(F)c1Cl [Crizotinib]; settings: max 10 µM
Outline: as §1

Dasatinib = compound: CC1=C(C(=CC=C1)Cl)NC(=O)C2=CN=C(S2)NC3=CC(=NC(=N3)C)N4CCN(CC4)CCO [Dasatinib]; settings: max 2 µM
Outline: as §1

AZD0156 = compound: CN(C)CCCOc1ccc(-c2ccc3ncc4c(c3c2)n(C2CCOCC2)c(=O)n4C)cn1 [AZD0156]; settings: max 3 µM
Outline: as §1

AZD8186 = compound: C[C@@H](Nc1cc(F)cc(F)c1)c1cc(C(=O)N(C)C)cc2c(=O)cc(N3CCOCC3)oc12 [AZD8186]; settings: max 3 µM
Outline: as §1

Lapatinib = compound: CS(=O)(=O)CCNCc1ccc(-c2ccc3ncnc(Nc4ccc(OCc5cccc(F)c5)c(Cl)c4)c3c2)o1 [Lapatinib]; settings: max 10 µM
Outline: as §1

AZD4320 = compound: CN(CC[C@H](CSC1=CC=CC=C1)NC2=C(C=C(C=C2)S(=O)(=O)NC(=O)C3=CC=C(C=C3)N4CCC(CC4)[C@H](C5=CC=CC=C5C6=CC=C(C=C6)Cl)O)S(=O)(=O)C(F)(F)F)CCO [AZD4320]; settings: max 1 µM
Outline: as §1

AZD6738 = compound: C[C@@H]1COCCN1C2=NC(=NC(=C2)C3(CC3)[S@](=N)(=O)C)C4=C5C=CNC5=NC=C4 [AZD6738]; settings: max 10 µM
Outline: as §1

SN-38 = compound: CCc1c2c(nc3ccc(O)cc13)-c1cc3c(c(=O)n1C2)COC(=O)[C@]3(O)CC [SN-38]; settings: max 0.3 µM
Outline: as §1

Olaparib = compound: O=C(c1cc(Cc2n[nH]c(=O)c3ccccc23)ccc1F)N1CCN(C(=O)C2CC2)CC1 [Olaparib]; settings: max 10 µM
Outline: as §1

Prexasertib = compound: COc1cccc(OCCCN)c1-c1cc(Nc2cnc(C#N)cn2)n[nH]1 [Prexasertib]; settings: max 1 µM
Outline: as §1

SG3199 = compound: CC1=CN2[C@@H](C1)C=NC3=CC(=C(C=C3C2=O)OC)OCCCCCOC4=C(C=C5C(=C4)N=C[C@@H]6CC(=CN6C5=O)C)OC [SG3199]; settings: max 0.001 µM
Outline: as §1

AZD5991 = compound: Cc1c2c(nn1C)CSCc1cc(n(C)n1)CSc1cc(c3ccccc3c1)OCCCc1c(C(=O)O)n(C)c3c-2c(Cl)ccc13 [AZD5991]; settings: max 1 µM
Outline: as §1

Gefitinib = compound: COc1cc2ncnc(Nc3ccc(F)c(Cl)c3)c2cc1OCCCN1CCOCC1 [Gefitinib]; settings: max 10 µM
Outline: as §1

Capivasertib = compound: C1CN(CCC1(C(=O)N[C@@H](CCO)C2=CC=C(C=C2)Cl)N)C3=NC=NC4=C3C=CN4 [Capivasertib]; settings: max 10 µM
Outline: as §1

Palbociclib = compound: CC(=O)c1c(C)c2cnc(Nc3ccc(N4CCNCC4)cn3)nc2n(C2CCCC2)c1=O [Palbociclib]; settings: max 10 µM
Outline: as §1

AZD1775 = compound: C=CCn1c(=O)c2cnc(Nc3ccc(N4CCN(C)CC4)cc3)nc2n1-c1cccc(C(C)(C)O)n1 [AZD1775]; settings: max 3 µM
Outline: as §1

AZD5153 = compound: COc1nnc2ccc(N3CCC(c4ccc(OCCN5CCN(C)C(=O)[C@H]5C)cc4)CC3)nn12 [AZD5153]; settings: max 1 µM
Outline: as §1

Alisertib = compound: COc1cc(Nc2ncc3c(n2)-c2ccc(Cl)cc2C(c2c(F)cccc2OC)=NC3)ccc1C(=O)O [Alisertib]; settings: max 10 µM
Outline: as §1

Taselisib = compound: Cc1nc(-c2cn3c(n2)-c2ccc(-c4cnn(C(C)(C)C(N)=O)c4)cc2OCC3)n(C(C)C)n1 [Taselisib]; settings: max 10 µM
Outline: as §1

SNU-5 (Gastric Carcinoma)
IC50, cell viability 72 h (Trametinib): 81.1 nM | IC50, cell viability 72 h (MK-2206): > 10000 nM | IC50, cell viability 72 h (AZD1390): > 300 nM | IC50, cell viability 72 h (Doxorubicin): > 1000 nM | IC50, cell viability 72 h (AZD2811): > 1000 nM | IC50, cell viability 72 h (Savolitinib): 7.44 nM | IC50, cell viability 72 h (Selumetinib): 2570 nM | IC50, cell viability 72 h (AZD7648): > 10000 nM | IC50, cell viability 72 h (Venetoclax): > 1000 nM | IC50, cell viability 72 h (Crizotinib): 86.9 nM | IC50, cell viability 72 h (Dasatinib): > 2000 nM | IC50, cell viability 72 h (AZD0156): > 3000 nM | IC50, cell viability 72 h (AZD8186): > 3000 nM | IC50, cell viability 72 h (Lapatinib): > 10000 nM | IC50, cell viability 72 h (AZD4320): > 1000 nM | IC50, cell viability 72 h (AZD6738): 1310 nM | IC50, cell viability 72 h (SN-38): 6.92 nM | IC50, cell viability 72 h (Olaparib): > 10000 nM | IC50, cell viability 72 h (Prexasertib): 18.1 nM | IC50, cell viability 72 h (SG3199): > 1 nM | IC50, cell viability 72 h (AZD5991): > 1000 nM | IC50, cell viability 72 h (Gefitinib): > 10000 nM | IC50, cell viability 72 h (Capivasertib): > 10000 nM | IC50, cell viability 72 h (Palbociclib): > 10000 nM | IC50, cell viability 72 h (AZD1775): 1850 nM | IC50, cell viability 72 h (AZD5153): > 1000 nM | IC50, cell viability 72 h (Alisertib): > 10000 nM | IC50, cell viability 72 h (Taselisib): > 10000 nM
